What follows are molecules tested against T1, CETP (Homo sapiens, UniProt P11597) (assay: Assay of CETP Inhibition using Purified Components (Reconstituted Buffer Assay)). Conditions: IC50, Inhibition of CETP activity in reconstituted buffer assay; transfer of [3H]CE from HDL to LDL.
T1 sequence (P11597 18-493): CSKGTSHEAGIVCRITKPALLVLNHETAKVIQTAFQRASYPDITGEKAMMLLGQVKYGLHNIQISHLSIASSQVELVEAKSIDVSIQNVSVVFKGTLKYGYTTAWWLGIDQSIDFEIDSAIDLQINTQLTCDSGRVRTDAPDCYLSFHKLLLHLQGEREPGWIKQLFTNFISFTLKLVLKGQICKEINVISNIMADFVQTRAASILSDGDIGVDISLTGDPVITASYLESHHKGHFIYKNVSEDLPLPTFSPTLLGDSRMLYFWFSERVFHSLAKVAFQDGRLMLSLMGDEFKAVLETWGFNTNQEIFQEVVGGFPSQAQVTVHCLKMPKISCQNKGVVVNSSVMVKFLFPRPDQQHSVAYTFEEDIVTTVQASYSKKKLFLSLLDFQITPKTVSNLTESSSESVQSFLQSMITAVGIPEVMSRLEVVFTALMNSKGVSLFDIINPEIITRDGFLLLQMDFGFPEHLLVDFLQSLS
Assay type: biochemical
Design: made in house; host or cells: CHO cells (serum-free conditioned medium)
Procedure, shortened: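 Transfer of radiolabeled cholesteryl ester from HDL to LDL was run for 2 h at 37 °C in pH 7.4 Tris buffer with 1% BSA, using purified CHO-expressed human CETP. Precipitated LDL radioactivity, measured by scintillation after dextran sulfate/MgCl2 precipitation and filtration, yielded the IC50.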
`OC(CN(Cc1ccc2c(c1)OC(F)(F)C(F)(F)O2)c1cccc(Oc2ccccc2)c1)C(F)(F)F` (centres unmarked) [Example 687] showed an IC50 of 12 µM.
`OC(CN(Cc1cccc(C(F)(F)F)c1)c1cccc(C(F)(F)F)c1)C(F)(F)F` (centres unmarked) [Example 47] gave an IC50 of 10 µM.
`CC(C)Cc1cccc(CN(CC(O)C(F)(F)F)c2cccc(Oc3ccccc3)c2)c1` (centres unmarked) [Example 598] was tested, and the IC50 was 0.54 µM.

Same assay, conditions: Inhibition of CETP activity in reconstituted buffer assay; transfer of [3H]CE from HDL to LDL; read-out: IC50
`N#Cc1cccc(N(Cc2cccc(OC(F)(F)C(F)F)c2)CC(O)C(F)(F)F)c1` (centres unmarked) [Example 576, 3-[[[3-(1,1,2,2-tetrafluoroethoxy)phenyl]methyl](3,3,3-trifluoro-2-hydroxypropyl)amino]benzonitrile] gave an IC50 of 6.4 µM.
For `N#Cc1ccc(CN(CC(O)C(F)(F)F)c2cccc(Oc3ccccc3)c2)cc1` (centres unmarked) [Example 146], the IC50 was 10 µM.
In the case of `OC(CN(Cc1cc(Cl)nc(Cl)c1)c1cccc(OC(F)(F)F)c1)C(F)(F)F` (centres unmarked) [Example 366], the IC50 is reported as 80 µM.
With `CCC(=O)c1ccc(Oc2cccc(N(Cc3cccc(OC(F)(F)C(F)F)c3)CC(O)C(F)(F)F)c2)cc1` (centres unmarked) [Example 693] the IC50 was 1.2 µM.
Molecule `OC(CN(Cc1cccc(OC(F)(F)C(F)F)c1)c1cccc(-c2ccccn2)c1)C(F)(F)F` (centres unmarked) [Example 451, 3-[[3-(2-pyridinyl)phenyl][[3-(1,1,2,2-tetrafluoroethoxy)phenyl]methyl]amino]-1,1,1-trifluoro-2-propanol] has an IC50 of 13 µM.
For `COc1ccc(Sc2cccc(N(Cc3cccc(OC(F)(F)C(F)F)c3)CC(O)C(F)(F)F)c2)cc1` (centres unmarked) [compound 291], the IC50 was 8.4 µM.
With `COc1ccc(OC)c(CN(CC(O)C(F)(F)F)c2cccc(OC(F)(F)F)c2)c1` (centres unmarked) [Example 355] the IC50 was 75 µM.
With `OC(CN(Cc1cccc(OC(F)(F)C(F)F)c1)c1cccc(Sc2ccncc2)c1)C(F)(F)F` (centres unmarked) [Example 474] the IC50 was 6 µM.
`OC(CN(Cc1cccc(OC(F)(F)F)c1)c1ccc(OC(F)(F)F)cc1)C(F)(F)F` (centres unmarked) [Example 134] was tested, and the IC50 was 6 µM.
`CC(C)(O)c1cccc(CN(CC(O)C(F)(F)F)c2cccc(Oc3ccccc3)c2)c1` (stereo not drawn) [Example 617, α, α-dimethyl-3-[[(3-phenoxyphenyl)(3,3,3-trifluoro-2-hydroxypropyl)amino]methyl]benzenemethanol] gave an IC50 of 7.9 µM.
With `OC(CN(Cc1cccc(OC(F)(F)C(F)F)c1)c1cccc(-c2ccc(F)cc2)c1)C(F)(F)F` (centres unmarked) [Example 568] the IC50 was 1.4 µM.
With `OC(CN(CCCCOc1ccccc1)c1cccc(OC(F)(F)F)c1)C(F)(F)F` (centres unmarked) [Example 336] the IC50 was over 100 µM.
Work on `OC(CN(Cc1ccc(F)cc1)Cc1ccccc1C(F)(F)F)C(F)(F)F` (centres unmarked) [compound 189] yielded an IC50 of over 100 µM.
In the case of `OC(CN(Cc1cccc(OC(F)(F)F)c1)c1cccc(Cl)c1)C(F)(F)F` (centres unmarked) [Example 41], the IC50 is reported as 12 µM.
Molecule `CC(C)S(=O)(=O)c1cccc(N(Cc2cccc(OC(F)(F)C(F)F)c2)CC(O)C(F)(F)F)c1` (centres unmarked) [Example 482, 3-[[3-[(1-methylethyl)sulfonyl]phenyl][[3-(1,1,2,2-tetrafluoroethoxy)-phenyl]methyl]amino]-1,1,1-trifluoro-2-propanol] has an IC50 of 4.8 µM.
For `OC(CN(Cc1cccc(OC(F)(F)C(F)F)c1)c1cccc(Oc2ccccc2F)c1)C(F)(F)F` (centres unmarked) [Example 223], the IC50 was 0.29 µM.
Molecule `CCC(C)(C)c1ccc(Oc2cccc(N(Cc3cccc(OC(F)(F)C(F)F)c3)CC(O)C(F)(F)F)c2)cc1` (centres unmarked) [Example 255] has an IC50 of 1.6 µM.
For `OC(CN(Cc1cccc(OC(F)(F)C(F)F)c1)c1cccc(OCc2csc3ccc(Cl)cc23)c1)C(F)(F)F` (centres unmarked) [Example 431], the IC50 was 12 µM.
In the case of `OC(CN(Cc1nc2ccccc2[nH]1)c1cccc(OC(F)(F)F)c1)C(F)(F)F` (centres unmarked) [Example 364], the IC50 is reported as over 100 µM.
For `OC(CN(Cc1cccc(Cl)c1)Cc1cccc(C(F)(F)F)c1)C(F)(F)F` (centres unmarked) [compound 185], the IC50 was 15 µM.
`Cc1cc(Cc2cccc(N(Cc3cccc(OC(F)(F)C(F)F)c3)CC(O)C(F)(F)F)c2)ccc1F` (centres unmarked) [Example 521] gave an IC50 of 0.43 µM.
With `CCOC(=O)c1cccc(Nc2cccc(N(Cc3cccc(OC(F)(F)C(F)F)c3)CC(O)C(F)(F)F)c2)c1` (centres unmarked) [Example 303] the IC50 was 33 µM.
For `FC(F)(F)CCCN(Cc1cccc(OC(F)(F)F)c1)c1cccc(Oc2ccccc2)c1` [Example 1671, N-(3-phenoxyphenyl)-N-(4,4,4-trifluorobutyl)-3-(trifluoromethoxy) benzenemethanamine], the IC50 was 11 µM.
Work on `OC(CN(Cc1cccc(C(F)(F)F)c1)Cc1ccccc1Cl)C(F)(F)F` (centres unmarked) [compound 187] yielded an IC50 of over 100 µM.
In the case of `OC(CN(Cc1cccc(Cc2ccccc2)c1)c1cccc(Oc2ccccc2)c1)C(F)(F)F` (centres unmarked) [Example 596, 3-[(3-phenoxyphenyl)[[3-(phenylmethyl)phenyl]methyl]amino]-1,1,1-trifluoro-2-propanol], the IC50 is reported as 13 µM.
`COc1ccccc1N(Cc1cccc(C(F)(F)F)c1)CC(O)C(F)(F)F` (centres unmarked) [Example 669] gave an IC50 of over 100 µM.
For `COc1ccccc1N(Cc1ccc(C(F)(F)F)cc1)CC(O)C(F)(F)F` (centres unmarked) [Example 682], the IC50 was over 100 µM.
With `CCc1cc(Oc2cccc(N(Cc3cccc(OC(F)(F)C(F)F)c3)C(CO)C(F)(F)F)c2)ccc1Cl` (centres unmarked) [Example 1670] the IC50 was 1.8 µM.
`FC(F)C(F)(F)Oc1cccc(C2OC(C(F)(F)F)CN2c2cccc(Oc3ccccc3)c2)c1` (centres unmarked) [Example 610, 3-(3-phenoxyphenyl)-2-[3-(1,1,2,2-tetrafluoroethoxy)phenyl]-5-(trifluoromethyl)oxazolidine] was tested, and the IC50 was 20 µM.
With `OC(CN(Cc1cccc(OC(F)(F)C(F)F)c1)c1cccc(OCc2ccc(-c3ccccc3)cc2)c1)C(F)(F)F` (centres unmarked) [Example 414] the IC50 was 4.6 µM.
For `OC(CN(Cc1ccc(-c2ccccc2)cc1)Cc1cccc(OC(F)(F)F)c1)C(F)(F)F` (centres unmarked) [compound 196], the IC50 was 40 µM.
`OC(CN(Cc1cccc(Oc2ccc(Cl)c(Cl)c2)c1)c1cccc(Oc2ccccc2)c1)C(F)(F)F` (centres unmarked) [Example 94] gave an IC50 of 40 µM.
With `Cc1ccc(Oc2cccc(N(Cc3cccc(OC(F)(F)F)c3)CC(O)C(F)(F)F)c2)cn1` (centres unmarked) [Example 633, 3-[[3-(2-methyl-5-pyridyloxy)phenyl][[3-(trifluoromethoxy)phenyl]methyl]-amino]-1,1,1-trifluoro-2-propanol] the IC50 was 3.1 µM.
For `COc1c(F)c(F)c(COc2cccc(N(Cc3cccc(OC(F)(F)C(F)F)c3)CC(O)C(F)(F)F)c2)c(F)c1F` (centres unmarked) [Example 386], the IC50 was 3.2 µM.
In the case of `CCCCc1ccc(Oc2cccc(N(Cc3cccc(OC(F)(F)C(F)F)c3)CC(O)C(F)(F)F)c2)cc1` (centres unmarked) [Example 261], the IC50 is reported as 1.7 µM.
`OC(CN(Cc1cccc(OC(F)(F)C(F)F)c1)c1cccc(OCc2cccc(Oc3ccccc3)c2)c1)C(F)(F)F` (centres unmarked) [Example 426] showed an IC50 of 2.5 µM.
`Cc1ccc(CN(CC(O)C(F)(F)F)c2cccc(Oc3ccccc3)c2)cc1-c1ccco1` (centres unmarked) [compound 594] was tested, and the IC50 was 4.2 µM.
`OC(CN(Cc1cccc(OC(F)(F)C(F)F)c1)c1cccc(Oc2cccc(-c3ccccc3)c2)c1)C(F)(F)F` (centres unmarked) [Example 264] gave an IC50 of 1.4 µM.
Molecule `CC(C)c1ccc(COc2cccc(N(Cc3cccc(OC(F)(F)C(F)F)c3)CC(O)C(F)(F)F)c2)cc1` (centres unmarked) [Example 427] has an IC50 of 0.42 µM.
`OC(CN(Cc1ccc(OC(F)(F)F)cc1)c1ccc(F)c(F)c1)C(F)(F)F` (centres unmarked) [Example 56] was tested, and the IC50 was 20 µM.
With `Cc1ccc(COc2cccc(N(Cc3cccc(OC(F)(F)C(F)F)c3)CC(O)C(F)(F)F)c2)cc1C` (centres unmarked) [Example 419] the IC50 was 0.19 µM.
`OC(CN(Cc1cccc(OC(F)(F)F)c1)c1ccc(F)c(F)c1)C(F)(F)F` (centres unmarked) [Example 78] showed an IC50 of 10 µM.
`CCN(c1ccc(OC)cc1)c1cccc(N(Cc2cccc(OC(F)(F)C(F)F)c2)CC(O)C(F)(F)F)c1` (centres unmarked) [Example 319] showed an IC50 of 4.7 µM.
`COc1ccccc1N(Cc1cccc(C)c1)CC(O)C(F)(F)F` (centres unmarked) [Example 668] was tested, and the IC50 was over 100 µM.
In the case of `OC(CN(Cc1cccc(OC(F)(F)C(F)F)c1)c1cccc(Oc2cc(F)ccc2F)c1)C(F)(F)F` (centres unmarked) [Example 235], the IC50 is reported as 0.31 µM.
`OC(CN(Cc1cccc(C(F)(F)F)c1)c1ccc(C#Cc2ccccc2)c(C(F)(F)F)c1)C(F)(F)F` (centres unmarked) [Example 622] showed an IC50 of 3.5 µM.
For `OC(CN(Cc1cccc(OC(F)(F)C(F)F)c1)c1cccc(NCc2ccccc2)c1)C(F)(F)F` (centres unmarked) [Example 542], the IC50 was 2.4 µM.
`OC(CN(Cc1cccc(OC(F)(F)C(F)F)c1)c1cccc(OCc2cc(Cl)cc(Cl)c2)c1)C(F)(F)F` (centres unmarked) [Example 422] showed an IC50 of 0.92 µM.
For `OC(CN(Cc1cccc(Oc2cc(Cl)cc(Cl)c2)c1)c1cccc(Oc2ccccc2)c1)C(F)(F)F` (centres unmarked) [Example 114], the IC50 was 40 µM.
`CC(C)CCc1cccc(CN(CC(O)C(F)(F)F)c2cccc(Oc3ccccc3)c2)c1` (centres unmarked) [Example 597] was tested, and the IC50 was 2 µM.
In the case of `CC(=O)c1ccc(S(=O)(=O)c2cccc(N(Cc3cccc(OC(F)(F)C(F)F)c3)CC(O)C(F)(F)F)c2)cc1` (centres unmarked) [Example 486], the IC50 is reported as 10 µM.
`OC(CN(Cc1cccc(OC(F)(F)F)c1)c1ccc(Cc2ccccc2)cc1)C(F)(F)F` (centres unmarked) [Example 136] showed an IC50 of 12 µM.
`Cc1ccc(Cc2cccc(N(Cc3cccc(OC(F)(F)C(F)F)c3)CC(O)C(F)(F)F)c2)cc1C` (centres unmarked) [Example 523] showed an IC50 of 0.77 µM.
With `CC(C)COc1cccc(N(Cc2cccc(OC(F)(F)C(F)F)c2)CC(O)C(F)(F)F)c1` (centres unmarked) [Example 492] the IC50 was 1.2 µM.
`CC(=O)c1ccc(Sc2cccc(N(Cc3cccc(OC(F)(F)C(F)F)c3)CC(O)C(F)(F)F)c2)cc1` (centres unmarked) [Example 478] was tested, and the IC50 was 1.8 µM.
`CCCN(C)C(=O)c1cccc(CN(CC(O)C(F)(F)F)c2cccc(Oc3ccccc3)c2)c1` (centres unmarked) [compound 614] showed an IC50 of over 100 µM.

Source: patent US6723753B2, “Substituted n-benzyl-n-phenyl aminoalcohol compounds useful for inhibiting cholesteryl ester transfer protein activity” (Pharmacia Corporation, priority 2002, dated 2004)
